The values that follow come from patent US20160052898A1, “NOVEL COMPOUNDS” (BAYER PHARMA AKTIENGESELLSCHAFT, priority 2013, published 2016).

What all share (assay type): cell-based
Assay [1] has as its system constitutive active colorectal cancer cell (CRC) Wnt pathway. Briefly: HCT116 Super TopFlash cellular reporter assay (constitutive active Wnt pathway). The conditions noted are these: Homo sapiens, HCT-116, 36 h, HCT116 TOP reporter cells, luciferase expression, 36 hours incubation, 50 μM to 15 nM. In outline:
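Luciferase luminescence served as the Wnt read-out after 36 h of compound treatment at 37 °C. Compound came from a pre-dilution series (50 μM down to 15 nM, 3.16-fold steps) in CAFTY buffer. Cells were stable HCT116 TOP reporter cells, with matched FOP-vector control cells tested in parallel, seeded a day earlier.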

For assay [2], the system named is HEK293 FOP control reporter cell line. Briefly: HEK293 FOP control vector reporter assay. The conditions noted are these: Homo sapiens; HEK293 FOP control reporter cells, EC50 concentration of recombinant Wnt-3a, 16 hours incubation; read-out: HEK FOP IC50. Here is the method: (§1) In order to determine the inhibitory activity of compounds for the WT Wnt signaling pathway, the Super TopFlash vector respectively FOP vector were cotransfected with pcDNA3 into HEK293 and stable transfected HEK293 cells were isolated by antibiotic selection. […] The recombinant human Wnt-3a was thereby used between 2500 and 5 ng/ml in two-fold dilution steps. […] Measurement of luciferase expression was done as described for the constitutive active Wnt assay.
In a parallel approach, HEK293 cells were cotransfected with the FOP control vector and pcDNA3. The FOP vector is identical to the TOP construct, but it contains instead of functional TCF elements a randomized, non-functional sequence. For this transfection a stable transfected cell line was generated as well, based on selection with Geneticin (1 mg/ml).
(§2) In preparation of the assay, the two cell lines were plated 24 hours before beginning the test at 10000 cells per well in a 384 micro titre plate (MTP) in […] growth medium. […] The recombinant human Wnt-3a was thereby applied between 2500 and 5 ng/ml in two-fold dilution steps. Selective inhibitory activity for small molecules on the wildtype Wnt pathway was determined after parallel incubation of both (TOP and FOP) HEK293 reporter cell lines with a compound dilution series from 50 μM to 15 nM in steps of 3.16-fold dilutions in CAFTY buffer (130 mM NaCl, 5 mM KCl, 20 mM HEPES, 1 mM MgCl2, 5 mM NaHCO3, pH 7.4) containing 2 mM Ca^2+ and 0.01% BSA.
(§3) The compounds were thereby serially prediluted in 100% DMSO and thereafter 50 fold into the CAFTY compound dilution buffer (described above).
(In general: In a reporter assay the amount or activity of a reporter protein is the signal.)

The test system of assay [3] is wildtype Wnt pathway. Briefly: HEK293 Super TopFlash cellular reporter assay, Wnt-3a stimulated (wildtype Wnt pathway). The note with it: Homo sapiens; HEK293 TOP reporter cells, EC50 concentration of recombinant Wnt-3a, 16 hours incubation; read-out: HEK TOP OncoFlash IC50. Here is the method: as §1
In order to discover and characterize small molecules which inhibit the wildtype Wnt pathway, a cellular reporter assay was employed. The corresponding assay cell was generated by transfection of the mammalian cell line HEK293 (ATCC, #CRL-1573) with the Super TopFlash vector (Morin, Science 275, 1997, 1787-1790; Molenaar et al., Cell 86 (3), 1996, 391-399). The HEK293 cell line is cultivated at 37° C. and 5% CO2 in DMEM (Life Technologies, #41965-039), supplemented with 2 mM glutamine, 20 mM HEPES, 1.4 mM pyruvate, 0.15% Na-bicarbonate and 10% foetal bovine serum (GIBCO, #10270). Stable transfectants were generated by selection with 300 μg/ml Hygromycin.
as §2, §3

The subject of assay [4] is HCT116 FOP control reporter cell line. Nature of the assay: HCT116 FOP control vector reporter assay (non-functional TCF elements). The conditions noted are these: Homo sapiens, HCT-116, 36 h, HCT116 FOP control reporter cells, luciferase expression, 36 hours incubation, 50 μM to 15 nM; read-out: HCT116 FOPFlash IC50. The method in brief:
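Stable HCT116 line carrying the non-functional FOP luciferase construct, 10000 cells/well plated 24 hrs before. Compounds 50 μM to 15 nM (3.16-fold steps) in CAFTY buffer pH 7.4 with 2 mM Ca2+, 36 hours at 37° C; luciferase luminescence read.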

Broadly, the IC50 is the concentration at which inhibition is half-maximal. `C[C@@H](C(=O)Nc1cc(NC(=O)c2ccc(-c3ccccc3)cc2)ccc1F)N1CCOCC1` [Example 30, N-(4-fluoro-3-{[(2S)-2-(morpholin-4-yl)propanoyl]amino}phenyl)biphenyl-4-carboxamide]: the IC50 in assay [1] is 1640 nM; in assay [2] it was 9200 nM; in assay [3], 920 nM; in assay [4], no less than 50000 nM.
With `COc1ccc(NC(=O)c2ccc(-c3ccccc3)cc2)cc1NC(=O)CN1CC2CCC(C1)O2` [Example 32, N-{4-methoxy-3-[(8-oxa-3-azabicyclo[3.2.1]oct-3-ylacetyl)amino]phenyl}biphenyl-4-carboxamide], the IC50 in assay [1] was 170 nM; in assay [2] it was 17000 nM; in assay [3] it was 520 nM; in assay [4] it was no less than 50000 nM.
In the same order, the values of `COc1ccc(NC(=O)c2ccc(-c3ccccc3)cc2)cc1NC(=O)CN1C[C@@H]2C[C@H]1CO2` [Example 33, N-(4-methoxy-3-{[(1S,4S)-2-oxa-5-azabicyclo[2.2.1]hept-5-ylacetyl]amino}phenyl)biphenyl-4-carboxamide] are 435 nM, 9000 nM, 400 nM and no less than 50000 nM.
As for `COc1ccc(NC(=O)c2ccc(-c3ccccc3)cc2)cc1NC(=O)CN1CCN(C2CC2)CC1` [Example 35, N-(3-{[(4-cyclopropylpiperazin-1-yl)acetyl]amino}-4-methoxyphenyl)biphenyl-4-carboxamide], the IC50 in assay [1] is 1180 nM; in assay [2], 29000 nM; in assay [3], 920 nM; in assay [4], no less than 50000 nM.
On to `COc1ccc(NC(=O)c2ccc(-c3ccccc3)cc2)cc1NC(=O)CN1CCCOCC1` [Example 36, N-{4-methoxy-3-[(1,4-oxazepan-4-ylacetyl)amino]phenyl}biphenyl-4-carboxamide], for which the IC50 in assay [1] is 1550 nM; in assay [2], 9900 nM; in assay [3], 820 nM; in assay [4], no less than 50000 nM.
As to `COc1ccc(NC(=O)c2ccc(-c3ccccc3)cc2)cc1NC(=O)CN1CCSCC1` [Example 37, N-{4-methoxy-3-[(thiomorpholin-4-ylacetyl)amino]phenyl}biphenyl-4-carboxamide], the IC50 in assay [1] was 1250 nM; in assay [2], no less than 50000 nM; in assay [3], 640 nM; in assay [4] it was no less than 50000 nM.
With `COc1ccc(NC(=O)c2ccc(-c3ccccc3)cc2)cc1NC(=O)CN1CCC(OC)CC1` [Example 39, N-(4-methoxy-3-{[(4-methoxypiperidin-1-yl)acetyl]amino}phenyl)biphenyl-4-carboxamide], the IC50 in assay [1] was 2200 nM; in assay [2] it was no less than 50000 nM; in assay [3] it was 1100 nM; in assay [4] it was no less than 50000 nM.
For the compound `COc1ccc(NC(=O)c2ccc(-c3ccccc3)cc2)cc1NC(=O)CN1CCC[C@H](O)C1` [Example 40, N-[3-({[(3S)-3-hydroxypiperidin-1-yl]acetyl}amino)-4-methoxyphenyl]biphenyl-4-carboxamide], the IC50 is 2300 nM in assay [1], 12000 nM in assay [2], 46 nM in assay [3] and no less than 50000 nM in assay [4].
For `COc1ccc(NC(=O)c2ccc(-c3ccccc3)cc2)cc1NC(=O)CN1CCOC(C)(C)C1` [Example 41, N-(3-{[(2,2-dimethylmorpholin-4-yl)acetyl]amino}-4-methoxyphenyl)biphenyl-4-carboxamide] the same measures were 2400 nM, no less than 50000 nM, 710 nM and no less than 50000 nM.
In the case of `COc1ccc(NC(=O)c2ccc(-c3ccccc3)cc2)cc1NC(=O)CN1CC[C@@H](O)C1` [Example 43, N-[3-({[(3R)-3-hydroxypyrrolidin-1-yl]acetyl}amino)-4-methoxyphenyl]biphenyl-4-carboxamide], the IC50 was 2650 nM in assay [1], no less than 50000 nM in assay [2], 1200 nM in assay [3] and no less than 50000 nM in assay [4].
`COc1ccc(NC(=O)c2ccc(-c3ccccc3)cc2)cc1NC(=O)CN1CCOC[C@@H]1C` [Example 48, N-[4-methoxy-3-({[(3S)-3-methylmorpholin-4-yl]acetyl}amino)phenyl]biphenyl-4-carboxamide]: the IC50 in assay [1] was 856 nM; in assay [2] it was no less than 50000 nM; in assay [3], 2800 nM; in assay [4], 12000 nM.
`COc1ccc(NC(=O)c2ccc(-c3ccccc3)cc2)cc1NC(=O)C(C)N1CCOCC1` (stereo not drawn) [Example 53, N-(4-methoxy-3-{[2-(morpholin-4-yl)propanoyl]amino}phenyl)biphenyl-4-carboxamide]: the IC50 is 480 nM in assay [1], 6200 nM in assay [2], 290 nM in assay [3] and no less than 50000 nM in assay [4].
Take `COc1ccc(NC(=O)c2ccc(-c3ccccc3)cc2)cc1NC(=O)[C@H](C)N1CC2CCC(C1)O2` [Example 56, N-(4-methoxy-3-{[(2S)-2-(8-oxa-3-azabicyclo[3.2.1]oct-3-yl)propanoyl]amino}phenyl)biphenyl-4-carboxamide]: the IC50 in assay [1] is 222 nM; in assay [2], no less than 50000 nM; in assay [3] it was 4000 nM; in assay [4], no less than 50000 nM.
For `CC(C(=O)Nc1cc(NC(=O)c2ccc(-c3ccccc3)cc2)ccc1OC(F)(F)F)N1CC2CCC(C1)O2` (stereo not drawn) [Example 58, N-[3-{[2-(8-oxa-3-azabicyclo[3.2.1]oct-3-yl)propanoyl]amino}-4-(trifluoromethoxy)phenyl]biphenyl-4-carboxamide], the IC50 was 54 nM in assay [1], 35000 nM in assay [2], 2200 nM in assay [3] and no less than 50000 nM in assay [4].
For `C[C@@H](C(=O)Nc1cc(NC(=O)c2ccc(-c3ccccc3)cc2)ccc1OC(F)(F)F)N1CC2CCC(C1)O2` [Example 59, N-[3-{[(2S)-2-(8-oxa-3-azabicyclo[3.2.1]oct-3-yl)propanoyl]amino}-4-(trifluoromethoxy)phenyl]biphenyl-4-carboxamide], the IC50 in assay [1] is 111 nM; in assay [2], no less than 50000 nM; in assay [3] it was 1700 nM; in assay [4] it was 40000 nM.
In the case of `CC(C(=O)Nc1cc(NC(=O)c2ccc(-c3ccccc3)cc2)ccc1OC(F)(F)F)N1CCOCC1` (stereo not drawn) [Example 61, N-[3-{[2-(morpholin-4-yl)propanoyl]amino}-4-(trifluoromethoxy)phenyl]biphenyl-4-carboxamide], the IC50 in assay [1] was 130 nM; in assay [2], no less than 50000 nM; in assay [3], 140 nM; in assay [4], no less than 50000 nM.
Regarding `C[C@@H](C(=O)Nc1cc(NC(=O)c2ccc(-c3ccccc3)cc2)ccc1OC(F)(F)F)N1CCOCC1` [Example 62, N-[3-{[(2S)-2-(morpholin-4-yl)propanoyl]amino}-4-(trifluoromethoxy)phenyl]biphenyl-4-carboxamide], the IC50 in assay [1] was 61 nM; in assay [2], 8000 nM; in assay [3], 55 nM; in assay [4], no less than 50000 nM.
On to `O=C(CN1CCOCC1)Nc1cc(NC(=O)c2ccc(-c3ccccc3)cc2)ccc1OC(F)(F)F` [Example 66, N-{3-[(morpholin-4-ylacetyl)amino]-4-(trifluoromethoxy)phenyl}biphenyl-4-carboxamide], for which the IC50 in assay [1] is 39.2 nM; in assay [2] it was no less than 50000 nM; in assay [3], 1600 nM; in assay [4] it was no less than 50000 nM.
